Non-standard residues stand in square brackets, D forms with d. Residues, ends and D or L forms follow the SMILES beside them. sY = N[C@@H](Cc1ccc(OS(=O)(=O)O)cc1)C(=O)O
System: Male Sprague-Dawley rats
Type: in vivo
Conditions: rat, intraperitoneal; for % FEEDING INHIBITION 0.5 hr / % FEEDING INHIBITION 3 hr: 30 μg/kg, vs saline controls; for % FEEDING INHIBITION 3 hr: IA means inactive; for feeding inhibition during the 0.5 hour feeding period: 0.3 μg/kg; for feeding inhibition during the 3 hour feeding period: 3 μg/kg
Experimental: The peptides of this invention have the ability to inhibit feeding activity in mammals. As a result they have utility in the prevention and treatment of obesity.
Male Sprague-Dawley rats (weighing 300-350 g) are individually caged and maintained on a 12 hr. light, dark cycle and trained for at least 14 days to feed during a three hr period of the dark cycle but not the 21 hours preceding that three hr period. The day of the study, rats are dosed intraperitoneally with saline (controls) or test compound (dissolved in saline; usually at a concentration of 0.3 to 300 micrograms of test compound per kg of rat weight). Food is introduced 10 minutes after administration of saline or test compound. […] The % feeding inhibition for the 1/2 hr and 3 hr feeding periods obtained by administering a dose of 30 μg/kg of test compound is given in Table 2 for CCK-8 and various compounds of the invention. For example, the % feeding inhibition obtained with CCK-8 (first line of Table 2) was 70% for the 1/2 hr feeding period and 25% for the 3-hour period.

With `CSCC[C@H](NC(=O)[C@H](Cc1ccc(OS(=O)(=O)O)cc1)NC(=O)[C@H](N)CC(=O)O)C(=O)NCC(=O)N[C@@H](Cc1c[nH]c2ccccc12)C(=O)N[C@@H](CCSC)C(=O)N[C@@H](CC(=O)O)C(=O)N[C@@H](Cc1ccccc1)C(N)=O` [H-DAsp-Tyr(SO3 H)-Met-Gly-Trp-Met-Asp-Phe-NH2] the “% FEEDING INHIBITION 0.5 hr” value (0.5 hr feeding period) was 99% and the “% FEEDING INHIBITION 3 hr” value (3 hr feeding period) was 40%.

`CSCC[C@H](NC(=O)[C@H](Cc1c[nH]c2ccccc12)NC(=O)CNC(=O)[C@H](CCSC)NC(=O)[C@@H](N)Cc1ccc(OS(=O)(=O)O)cc1)C(=O)N[C@@H](CC(=O)O)C(=O)N[C@@H](Cc1ccccc1)C(N)=O` [H-Try(SO3 H)-Met-Gly-Trp-Met-Asp-Phe-NH2, H-Tyr(SO3 H)-Met-Gly-Trp-Met-Asp-Phe-NH2] (HELM PEPTIDE1{[N[C@@H](Cc1ccc(OS(=O)(=O)O)cc1)C(=O)[*:2]].M.G.W.M.D.F.[am]}$$$$V2.0) was tested, and the “% FEEDING INHIBITION 0.5 hr” value (0.5 hr feeding period) was 50% and the “% FEEDING INHIBITION 3 hr (values marked *)” value (300 μg/kg, 3 hr feeding period, <10% inhibition at 30 μg/kg) was 30%.

For `CSCC[C@H](NC(=O)[C@H](Cc1ccc(OS(=O)(=O)O)cc1)NC(=O)C[C@H](N)C(=O)O)C(=O)NCC(=O)N[C@@H](Cc1c[nH]c2ccccc12)C(=O)N[C@@H](CCSC)C(=O)N[C@@H](CC(=O)O)C(=O)N[C@@H](Cc1ccccc1)C(N)=O` [H-βAsp-Tyr(SO3 H)-Met-Gly-Trp-Met-Asp-Phe-NH2], the “% FEEDING INHIBITION 0.5 hr” value (0.5 hr feeding period) was 91% and the “% FEEDING INHIBITION 3 hr” value (3 hr feeding period) was 21%.

In the case of `CC[C@H](C)[C@H](NC(=O)[C@H](Cc1ccc(OS(=O)(=O)O)cc1)NC(=O)CCC(=O)O)C(=O)NCC(=O)N[C@@H](Cc1c[nH]c2ccccc12)C(=O)N[C@H](C(=O)N[C@@H](CC(=O)O)C(=O)N[C@@H](Cc1ccccc1)C(N)=O)[C@@H](C)CC` [Suc-Tyr(SO3 H)-Ile-Gly-Trp-Ile-Asp-Phe-NH2] (HELM PEPTIDE1{[O=C(O)CCC(=O)[*:2]].[O=C([C@H](Cc1ccc(OS(=O)(=O)O)cc1)N[*:1])[*:2]].I.G.W.I.D.F.[am]}$$$$V2.0), the “% FEEDING INHIBITION 0.5 hr” value (0.5 hr feeding period) is reported as 73% and the “% FEEDING INHIBITION 3 hr” value (3 hr feeding period) is reported as 54%.

`CSCC[C@H](NC(=O)[C@H](Cc1c[nH]c2ccccc12)NC(=O)[C@@H](C)NC(=O)[C@H](CCSC)NC(=O)[C@H](Cc1ccc(OS(=O)(=O)O)cc1)NC(=O)CCC(=O)O)C(=O)N[C@@H](CC(=O)O)C(=O)N[C@@H](Cc1ccccc1)C(N)=O` [Suc-Tyr(SO3 H)-Met-DAla-Trp-Met-Asp-Phe-NH2] (HELM PEPTIDE1{[O=C(O)CCC(=O)[*:2]].[O=C([C@H](Cc1ccc(OS(=O)(=O)O)cc1)N[*:1])[*:2]].M.[dA].W.M.D.F.[am]}$$$$V2.0) was tested, and the “% FEEDING INHIBITION 0.5 hr” value (0.5 hr feeding period) was 75% and the “% FEEDING INHIBITION 3 hr” value (3 hr feeding period) was 30%.

For `CSCC[C@H](NC(=O)[C@H](Cc1ccc(OS(=O)(=O)O)cc1)NC(=O)CCC(=O)O)C(=O)NCC(=O)N[C@@H](Cc1c[nH]c2ccccc12)C(=O)N[C@@H](CCSC)C(=O)N[C@@H](CC(=O)O)C(=O)N[C@@H](Cc1ccccc1)C(N)=O` [Suc-Tyr(SO3 H)-Met-Gly-Trp-Met-Asp-Phe-NH2] (HELM PEPTIDE1{[O=C(O)CCC(=O)[*:2]].[O=C([C@H](Cc1ccc(OS(=O)(=O)O)cc1)N[*:1])[*:2]].M.G.W.M.D.F.[am]}$$$$V2.0), the “% FEEDING INHIBITION 0.5 hr” value (0.5 hr feeding period) was 75% and the “% FEEDING INHIBITION 3 hr” value (3 hr feeding period) was 55%.

In the case of “H-Asp-Tyr(SO3 H)-Ahx-Gly-Trp-Ahx-Asp-Phe-NH2”, the “% FEEDING INHIBITION 0.5 hr” value (0.5 hr feeding period) is reported as 82% and the “% FEEDING INHIBITION 3 hr” value (3 hr feeding period) is reported as 27%.

With “H-Asp-Tyr(SO3 H)-Met-Gly-Trp-Ahx-Asp-Phe-NH2” the “% FEEDING INHIBITION 0.5 hr” value (0.5 hr feeding period) was 82% and the “% FEEDING INHIBITION 3 hr” value (3 hr feeding period) was 23%.

For “H-Asp-Tyr(SO3 H)-Met-Gly-Trp-Met-Asp-Tyr-NH2 (H-D[sY]MGWMDY-NH2; not fully specified)”, the “% FEEDING INHIBITION 0.5 hr (values marked *)” value (300 μg/kg, 0.5 hr feeding period, <10% inhibition at 30 μg/kg) was 23%.

In the case of Hpp(SO3 H)-Ahx-Gly-Trp-Ahx-Asp-Phe-NH2, the “feeding inhibition during the 0.5 hour feeding period” value (0.5 hr feeding period) is reported as 20-72%, the “feeding inhibition during the 3 hour feeding period” value (3 hr feeding period) is reported as 50-90% and the “% FEEDING INHIBITION 0.5 hr” value (0.5 hr feeding period) is reported as 100%. The “% FEEDING INHIBITION 3 hr” value (3 hr feeding period) was 99%.

In the case of “Hpp(SO3 sH)-Ahx-Gly-Trp-Ahx-Asp-MePhe-NH2 [Hpp(SO3 H)-Ahx-Gly-Trp-Ahx-Asp-MePhe-NH2]”, the “feeding inhibition during the 0.5 hour feeding period” value (0.5 hr feeding period) is reported as 20-72%, the “feeding inhibition during the 3 hour feeding period” value (3 hr feeding period) is reported as 50-90% and the “% FEEDING INHIBITION 0.5 hr” value (0.5 hr feeding period) is reported as 94%. For the same compound, the “% FEEDING INHIBITION 3 hr” value (3 hr feeding period) was 96%.

Source: patent publication US5086042A, “Peptides with sulfate ester groups” (Fisons Corporation, priority 1989, dated 1992)
